Test results taken from ChEMBL document CHEMBL1201862, “PubChem BioAssay data set” (2004).
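Briefly, cells in 96-well plates were exposed to five compound concentrations for 48 h, and endpoints were estimated by linear interpolation. GI50 = concentration required for 50% inhibition of growth.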 Activity calls are given as the source filed them. Cut-off read from the data, not from the text of the source: active = GI50 up to about 1.1 µM and inactive = higher.

How the values were obtained:
Experiment in all cases: growth of human tumour cells (NCI), 48 h
SW-620 = tested on: SW-620
NCI-H522 = tested on: NCI-H522
NCI-H460 = tested on: NCI-H460
ACHN = tested on: ACHN
PC-3 = tested on: PC-3
786-0 = tested on: 786-0
HT-29 = tested on: HT-29
SF-268 = tested on: SF-268
TK-10 = tested on: TK-10
U-251 = tested on: U-251
Malme-3M = tested on: Malme-3M
RPMI-8226 = tested on: RPMI-8226
SF-295 = tested on: SF-295
OVCAR-8 = tested on: OVCAR-8
EKVX = tested on: EKVX
T47D = tested on: T47D
HOP-62 = tested on: HOP-62
A549 = tested on: A549
IGROV-1 = tested on: IGROV-1
SNB-75 = tested on: SNB-75
HCT-116 = tested on: HCT-116
SK-MEL-2 = tested on: SK-MEL-2
UO-31 = tested on: UO-31
COLO 205 = tested on: COLO 205
K562 = tested on: K562
SK-OV-3 = tested on: SK-OV-3
CAKI-1 = tested on: CAKI-1
BT-549 = tested on: BT-549
M14 = tested on: M14
HOP-92 = tested on: HOP-92
MOLT-4 = tested on: MOLT-4
MCF7 = tested on: MCF7
OVCAR-5 = tested on: OVCAR-5
MDA-MB-435 = tested on: MDA-MB-435
NCI/ADR-RES = tested on: NCI/ADR-RES
CCRF-CEM = tested on: CCRF-CEM
UACC-62 = tested on: UACC-62
HCT-15 = tested on: HCT-15
DU-145 = tested on: DU-145
SNB-19 = tested on: SNB-19
Hs-578T = tested on: Hs-578T
SR = tested on: SR
UACC-257 = tested on: UACC-257
MDA-N = tested on: MDA-N
SK-MEL-5 = tested on: SK-MEL-5
NCI-H23 = tested on: NCI-H23
OVCAR-4 = tested on: OVCAR-4
SN12C = tested on: SN12C
LOX IMVI = tested on: LOX IMVI
HL-60 = tested on: HL-60
SK-MEL-28 = tested on: SK-MEL-28
KM12 = tested on: KM12
NCI-H226 = tested on: NCI-H226
OVCAR-3 = tested on: OVCAR-3

## CCOP(=O)(OCC)C(Cc1ccccc1)N=C(c1ccccc1)c1ccccc1 (stereo not drawn)
SW-620
  GI50: 12.4 µM (inactive)
NCI-H522
  GI50: 12.4 µM (inactive)
NCI-H460
  GI50: 14.8 µM (inactive)
ACHN
  GI50: 14.9 µM (inactive)
PC-3
  GI50: 3.96 µM (inactive)
786-0
  GI50: 15.2 µM (inactive)
HT-29
  GI50: 13.1 µM (inactive)
SF-268
  GI50: 17.8 µM (inactive)
TK-10
  GI50: 11.5 µM (inactive)
U-251
  GI50: 13.3 µM (inactive)
Malme-3M
  GI50: 20.6 µM (inactive)
RPMI-8226
  GI50: 25.4 µM (inactive)
SF-295
  GI50: 12.3 µM (inactive)
OVCAR-8
  GI50: 16.3 µM (inactive)
EKVX
  GI50: 18 µM (inactive)
T47D
  GI50: 6.97 µM (inactive)
HOP-62
  GI50: 17.6 µM (inactive)
A549
  GI50: 9.29 µM (inactive)
IGROV-1
  GI50: 13.9 µM (inactive)
SNB-75
  GI50: 11.5 µM (inactive)
HCT-116
  GI50: 14.6 µM (inactive)
SK-MEL-2
  GI50: 18.2 µM (inactive)
UO-31
  GI50: 11.5 µM (inactive)
COLO 205
  GI50: 14.3 µM (inactive)
K562
  GI50: 7.29 µM (inactive)
SK-OV-3
  GI50: 15.2 µM (inactive)
CAKI-1
  GI50: 16.2 µM (inactive)
BT-549
  GI50: 13.2 µM (inactive)
M14
  GI50: 15.3 µM (inactive)
HOP-92
  GI50: 13.6 µM (inactive)
MOLT-4
  GI50: 4.93 µM (inactive)
MCF7
  GI50: 13.9 µM (inactive)
OVCAR-5
  GI50: 14.4 µM (inactive)
MDA-MB-435
  GI50: 13.2 µM (inactive)
NCI/ADR-RES
  GI50: 10.1 µM (inactive)
CCRF-CEM
  GI50: 9.95 µM (inactive)
UACC-62
  GI50: 13.3 µM (inactive)
HCT-15
  GI50: 12.1 µM
DU-145
  GI50: 20.9 µM (inactive)
SNB-19
  GI50: 14.6 µM (inactive)
Hs-578T
  GI50: 11.2 µM (inactive)
SR
  GI50: 17.9 µM (inactive)
UACC-257
  GI50: 13.7 µM (inactive)
MDA-N
  GI50: 14.6 µM (inactive)
SK-MEL-5
  GI50: 12.9 µM (inactive)
NCI-H23
  GI50: 12.7 µM (inactive)
OVCAR-4
  GI50: 16.2 µM (inactive)
SN12C
  GI50: 16.7 µM (inactive)
LOX IMVI
  GI50: 11.6 µM (inactive)
HL-60
  GI50: 16.3 µM (inactive)
SK-MEL-28
  GI50: 17 µM (inactive)
KM12
  GI50: 15.5 µM (inactive)
NCI-H226
  GI50: 14.2 µM (inactive)
OVCAR-3
  GI50: 14.5 µM (inactive)

## CC12CCCC(C(=O)O)(C1)[C@H](C(C)(C)C(=O)O)CC2 (stereo partly drawn)
SW-620
  GI50: > 100 µM (inactive)
NCI-H522
  GI50: > 100 µM (inactive)
NCI-H460
  GI50: > 100 µM (inactive)
ACHN
  GI50: > 100 µM (inactive)
PC-3
  GI50: > 100 µM (inactive)
786-0
  GI50: > 100 µM (inactive)
HT-29
  GI50: > 100 µM (inactive)
SF-268
  GI50: > 100 µM (inactive)
TK-10
  GI50: > 100 µM (inactive)
U-251
  GI50: > 100 µM (inactive)
Malme-3M
  GI50: > 100 µM (inactive)
RPMI-8226
  GI50: > 100 µM (inactive)
SF-295
  GI50: > 100 µM (inactive)
OVCAR-8
  GI50: > 100 µM (inactive)
EKVX
  GI50: > 100 µM (inactive)
T47D
  GI50: > 100 µM (inactive)
HOP-62
  GI50: > 100 µM (inactive)
A549
  GI50: > 100 µM (inactive)
IGROV-1
  GI50: > 100 µM (inactive)
SNB-75
  GI50: > 100 µM (inactive)
HCT-116
  GI50: > 100 µM (inactive)
SK-MEL-2
  GI50: > 100 µM (inactive)
UO-31
  GI50: > 100 µM (inactive)
COLO 205
  GI50: > 100 µM (inactive)
K562
  GI50: > 100 µM (inactive)
SK-OV-3
  GI50: > 100 µM (inactive)
CAKI-1
  GI50: > 100 µM (inactive)
BT-549
  GI50: > 100 µM (inactive)
M14
  GI50: > 100 µM (inactive)
HOP-92
  GI50: > 100 µM (inactive)
MOLT-4
  GI50: > 100 µM (inactive)
MCF7
  GI50: > 100 µM (inactive)
OVCAR-5
  GI50: > 100 µM (inactive)
MDA-MB-435
  GI50: > 100 µM (inactive)
NCI/ADR-RES
  GI50: > 100 µM (inactive)
CCRF-CEM
  GI50: > 100 µM (inactive)
UACC-62
  GI50: > 100 µM (inactive)
HCT-15
  GI50: > 100 µM
DU-145
  GI50: > 100 µM (inactive)
SNB-19
  GI50: > 100 µM (inactive)
Hs-578T
  GI50: > 100 µM (inactive)
SR
  GI50: > 100 µM (inactive)
UACC-257
  GI50: > 100 µM (inactive)
MDA-N
  GI50: > 100 µM (inactive)
SK-MEL-5
  GI50: > 100 µM (inactive)
NCI-H23
  GI50: > 100 µM (inactive)
OVCAR-4
  GI50: > 100 µM (inactive)
SN12C
  GI50: > 100 µM (inactive)
LOX IMVI
  GI50: > 100 µM (inactive)
HL-60
  GI50: > 100 µM (inactive)
SK-MEL-28
  GI50: > 100 µM (inactive)
KM12
  GI50: > 100 µM (inactive)
NCI-H226
  GI50: > 100 µM (inactive)
OVCAR-3
  GI50: > 100 µM (inactive)
